Source: patent publication US20160215348A1, “GENE EXPRESSION BIOMARKERS AND THEIR USE FOR DIAGNOSTIC AND PROGNOSTIC APPLICATION IN PATIENTS POTENTIALLY IN NEED OF HDAC INHIBITOR TREATMENT” (4SC AG, priority 2013, published 2016)

Experiments:
[1] = system: hepatocellular cancer (HCC); test: SHELTER clinical trial, overall survival (Kaplan-Meier) by baseline ZFP64 expression; format: in vivo, human
Procedure: Resminostat was explored as monotherapy and in combination with sorafenib. Patients with advanced HCC (BCLC staging B/C) were included in a multi-center, two-arm trial. […] A dose escalation of resminostat (range 200 to 600 mg) combined with Sorafenib (400 or 800 mg) was performed. Arm A investigated the drug combination (resminostat+sorafenib), Arm B the monotherapy of resminostat (600 mg). Primary objective was the progression-free survival rate (PFSR) after 12 weeks (w). Secondary objectives included safety, tolerability, tumor response, PFS, TTP, OS and the analyses of PK and biomarkers (BM), incl. HDAC enzyme inhibition, histone acetylation and gene expressions in peripheral blood. Based on the results and indications seen in the analysis in example 3a, the dCt values of ZFP64 at baseline were treated with the method described here for determining the split between gene expression groups. Data was processed as follows: Gene expression data of the genes of interest was gathered as real time PCR dCt values relative to the expression of housekeeping genes for a specific time point, e.g. at baseline prior to treatment start. […] Said two groups were then compared in Kaplan-Meier analyses for OS, PFS in order to identify a statistically significant difference that separates the patients' probability for OS, PFS.

CCDC43 = test: Gene expression in HepG2 cancer cells (in vitro); format: cell-based, human; settings: standardized to 0 h
Procedure: (§1) Hatched columns relate to blood, black columns relate to HepG2 cells, white boxes relate to HT 29 cells. Values are standardized to the value at 0 h.
(§2) Samples were obtained and gene expressions were determined with the methods as described herein below. The results are shown in below table 3 and FIGS. 2 and 3
(§3) The above values represent a mean value which was determined on the basis of 2 biological replicates, for each of which 3 technical replicates were prepared. […] The level of gene expression determined in peripheral blood samples can be correlated with a certain level of activity of HDAC in the diseased cells, e.g. by applying an appropriate conversion factor or conversion table, which may be determined for each specific disease, and/or patient group.
(§4) To determine RNA expression levels of ZFP64 in different cancer cell lines and PBMC, the cell membranes were chemically disrupted with a buffer containing guanidine isothiocycanate, which lyses the cells and supports the binding of RNA to a silica membrane and RNA was extracted via a filter-based spin column.
(§5) The High-Capacity cDNA Reverse Transcription Kit (Applied Biosystems) was used for reverse transcription of total RNA into single stranded cDNA with the aid of random hexamer primers according to the manufacturer's instructions. Briefly, for the reaction mix total RNA was mixed with random primers in excess, 4 mM dNTP Mix, 2.5 U/reaction, reverse transcriptase and nuclease free water. The reverse transcription took place in a thermal cycler under the following conditions: 25° C. for 10 min, 37° C. for 120 min, 85° C. for 5 min, followed by 4° C. for cooling down the reaction. The reverse transcription can be done in principle as well with other reverse transcriptases, primers and temperature protocols. Whenever possible, 250 ng total RNA were reverse transcribed if not available, lower amounts were used.
(§6) Custom TaqMan® Arrays (Applied Biosystems) in Format 16 were designed for the gene expression analysis of biomarkers of the present invention and housekeeping genes as outlined in table 4. These arrays allow for qPCR analysis of 8 samples per card. Of course, all reactions can be done as well by conventional qPCR analysis with specific primers.

HDAC = test: Cellular HDAC enzyme activity in patients' whole blood (Boc-K(Ac)-AMC), inhibition vs pre-dose; format: in vivo, human; settings: SAPHIRE
Procedure: Samples were obtained and gene expressions were determined with the methods as described herein below. Whole blood was incubated for 2 h at 37° C. with fluorescent HDAC substrate Boc-K(Ac)-AMC. After the lysis of erythrocytes remaining cells were stored at −80° C. HDAC activity was determined by fluorimetric analysis using a FLUOstar OPTIMA plate reader, where cells were incubated with a defined developer reagent (containing trypsin and lysis buffer) which leads to cell lysis and generation of a fluorophore from the deacetylated substrate. Finally inhibition of HDAC activity compared to pre-dose levels was calculated.
• Labelled 15 ml tubes (e.g. PP tubes, e.g. Falcon® tubes) • Labelled 2 ml tubes (e.g. PP tubes) • Erythrocyte Lysis buffer (Qiagen 79217) (stored at RT until use) • 40 mM Boc-K(Ac) AMC Stock in DMSO (Bachem: 1-1875) (stored at −80° C. until use)
• 1) Add 1 ml citrate blood into a 15 ml labelled tube. • 2) Add 5 μl 40 mM Boc-K(Ac) AMC to 1 ml citrate blood (final concentration: 200 μM Boc-K(Ac) AMC). • 3) Incubate for 2 h in an incubator (37° C.). • 4) Add 5 fold volume (5 ml) of 4° C. cold erythrocyte lysis buffer (EL buffer, Qiagen 79217). • 5) Mix briefly on a shaker. • 6) Incubate on ice for at least 15 min; mix two times in between on a plate shaker. • 7) Add 7 ml of 4° C. […]

TBP = test: Gene expression in HT29 cancer cells (in vitro); format: cell-based, human; settings: standardized to 0 h
Procedure: as §1, §2, §3, §4, §5, §6

DPP3 = test: Gene expression in HT29 cancer cells (in vitro); format: cell-based, human; settings: standardized to 0 h
Procedure: as §1, §2, §3, §4, §5, §6

GAPDH = test: Gene expression in HT29 cancer cells (in vitro); format: cell-based, human; settings: standardized to 0 h
Procedure: as §1, §2, §3, §4, §5, §6

MICALL1 = test: Gene expression in HT29 cancer cells (in vitro); format: cell-based, human; settings: standardized to 0 h
Procedure: as §1, §2, §3, §4, §5, §6

HIST2H4A/B = test: Gene expression in HT29 cancer cells (in vitro); format: cell-based, human; settings: standardized to 0 h
Procedure: as §1, §2, §3, §4, §5, §6

[2] = SHELTER patients on resminostat 600 mg or resminostat 600 mg + sorafenib 400 mg, pooled, split at 75th percentile
[3] = SHELTER, single arm, resminostat 600 mg (combination: + sorafenib 400 mg), split at 75th percentile
[4] = all available SHELTER patients (monotherapy and sorafenib combination arms pooled), split 60% high/40% low

Expression level, MICALL1 (MICALL1; 2 h): 0.81
Expression level, MICALL1 (MICALL1; 5 h): 0.42
SMILES: CN(C)Cc1ccc(S(=O)(=O)n2ccc(/C=C/C(=O)NO)c2)cc1 [resminostat, (E)-3-(1-(4-((dimethylamino)methyl)phenylsulfonyl)-1H-pyrrol-3-yl)-N-hydroxyacrylamide]
median OS (high ZFP64 expression) [1, 2]: 9.4 months
median OS (low ZFP64 expression) [1, 2]: 5.1 months
overall median OS for the two groups ([1]; SHELTER, single arm, resminostat 600 mg (combination: + sorafenib 400 mg)): 3.7 months
median OS for high ZFP64 expression [1, 3]: 7.0 months
median OS for low ZFP64 expression [1, 3]: 0.9 months
median OS (high ZFP64 expression) [1, 4]: 8 months
median OS (low ZFP64 expression) [1, 4]: 3.9 months
Expression level, CCDC43 (CCDC43; 2 h): 0.70
Expression level, CCDC43 (CCDC43; 5 h): 0.46
Inhibition of HDAC enzyme activity (median) (HDAC; 2 h post-dose, both dose groups (600 mg, 800 mg), vs pre-dose): ≤ 93%
Inhibition of HDAC enzyme activity (HDAC; day 8, 800 mg dose group, wide range of individual values): up to 41%
Expression level, TBP (housekeeping gene) (TBP; 2 h): 1.15
Expression level, TBP (housekeeping gene) (TBP; 5 h): 1.13
Expression level, DPP3 (DPP3; 2 h): 0.87
Expression level, DPP3 (DPP3; 5 h): 0.72
Expression level, GAPDH (housekeeping gene) (GAPDH; 2 h): 0.93
Expression level, GAPDH (housekeeping gene) (GAPDH; 5 h): 0.97
Expression level, HIST2H4A/B (HIST2H4A/B; 2 h): 0.96
Expression level, HIST2H4A/B (HIST2H4A/B; 5 h): 0.88
